Measured values from US6869948B1 (Boehringer Ingelheim Pharma KG, priority 1998, dated 2005).
Where two headings read alike, the source gives them in different places.

Tests used:
[1] = Saturation solubility of meloxicam and its salts in various dissolving media; assay type: physicochemical; conditions: 0.1 N hydrochloric acid, pH 1, simulated gastric fluid, read-out: Solubility at ambient temperature
[2] = depending on the formulation; cited from earlier work
[3] = assay type: physicochemical
Protocol: Under ambient conditions the monohydrate of the meloxicam-meglumin salt is the stable modification, but at a relative humidity of over 75% a dihydrate is formed. The enclosed water can only be eliminated from the dihydrate under conditions of very great dryness. […] By intensive drying over a fairly long period the anhydrous form changes more and more into an amorphous form and after 24 h at 100° C. the material is totally amorphous.
The relevant parameters of the dehydration process are the temperature and duration of dehydration, the influence of which were observed by X-ray powder diffraction. The longer the dehydration process lasts, the less crystalline is the resulting material. […] The X-ray powder diffraction diagrams obtained after 1 hour at 80° C., 15 hours at 70° C., 20 hours at 80° C. and 24 hours at 100° C. are shown in FIG. 7.

[4] = cited from earlier work

## Cc1cnc(NC(=O)C2=C(O)c3ccccc3S(=O)(=O)N2C)s1 [Meloxicam, 4-hydroxy-2-methyl-N-(5-methyl-2-thiazolyl)-2H-1,2-benzothiazine-3-carboxamide-1,1-dioxide]
[1]
  solubility thermodynamic: 0.9 µg/mL
[2]
  time to maximum plasma levels: 2 to 8 h

## CNC[C@H](O)[C@@H](O)[C@H](O)[C@H](O)CO.Cc1cnc(NC(=O)C2=C(O)c3ccccc3S(=O)(=O)N2C)s1 [Example 3, Anhydrous Meloxicam Meglumin Salt]
[3]
  stability of the anhydrous form after dehydration: very rapidly absorbs water to form the monohydrate form

## CNC[C@H](O)[C@@H](O)[C@H](O)[C@H](O)CO.Cc1cnc(NC(=O)C2=C(O)c3ccccc3S(=O)(=O)N2C)s1.O [Example 1, Meloxicam Meglumin Salt Monohydrate]
[3]
  hygroscopic properties: hygroscopic
[3]; 24 hours at 100° C.
  solid-state change on dehydration (X-ray powder diffraction): anhydrous and totally amorphous
[3]; one hour at 80° C.
  solid-state change on dehydration (X-ray powder diffraction): no change can be detected

## ibuprofen-lysinate
[4]; 8 fasting test subjects, ibuprofen-lysinate 1000 mg film-coated tablet, ibuprofenic acid 600 mg sugar-coated tablet
  time after administration to peak-plasma level: 0.55 h
[4]; non-fasting test subjects
  time after administration to peak-plasma level: 1.18 h
